# Laboratory results taken from patent publication US12486253B2, “Therapeutics for the degradation of mutant BRAF” (C4 THERAPEUTICS, INC., priority 2021, dated 2025).
# Like-named read-outs stand apart in the source and are kept apart here.
# Target: BRAF V600E (Homo sapiens, UniProt P15056, V600E)
# Assay: HiBiT cellular BRAF^V600E degradation assay
# Assay type: cell-based
# Conditions: for DC50: concentration at which 50% of total cellular BRAF^V600E is degraded; for Emax: read-out: HiBit 24 h Emax
# [1] = A375.10 cells, 24 h, residual protein remaining in the cell
# Sequence of BRAF V600E (P15056 whole entry V600E): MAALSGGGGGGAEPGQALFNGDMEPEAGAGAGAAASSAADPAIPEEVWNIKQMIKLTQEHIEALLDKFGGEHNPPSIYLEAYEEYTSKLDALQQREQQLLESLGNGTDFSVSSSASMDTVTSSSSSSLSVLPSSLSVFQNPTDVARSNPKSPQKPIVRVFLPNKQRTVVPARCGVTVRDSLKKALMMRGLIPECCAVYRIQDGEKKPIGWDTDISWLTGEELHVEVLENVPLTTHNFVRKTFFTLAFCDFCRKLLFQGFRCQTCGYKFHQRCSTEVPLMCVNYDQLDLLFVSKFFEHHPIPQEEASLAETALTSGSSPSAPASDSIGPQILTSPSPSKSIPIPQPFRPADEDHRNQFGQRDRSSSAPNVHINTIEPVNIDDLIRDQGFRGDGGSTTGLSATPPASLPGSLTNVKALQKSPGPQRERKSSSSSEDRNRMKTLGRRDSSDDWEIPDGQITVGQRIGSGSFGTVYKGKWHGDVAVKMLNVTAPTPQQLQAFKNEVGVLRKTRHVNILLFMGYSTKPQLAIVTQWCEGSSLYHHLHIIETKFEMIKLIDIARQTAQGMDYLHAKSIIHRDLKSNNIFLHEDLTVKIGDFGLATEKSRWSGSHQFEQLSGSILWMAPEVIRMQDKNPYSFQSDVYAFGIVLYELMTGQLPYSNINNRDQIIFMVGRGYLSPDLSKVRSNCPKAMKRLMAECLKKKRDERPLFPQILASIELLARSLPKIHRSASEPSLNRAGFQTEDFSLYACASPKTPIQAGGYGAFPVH
"DC50 (A375.10 cells, 24 h) [nM]",Emax [1] [%],Compound,Emax [%]
6.63,9.52,"CCN(C)S(=O)(=O)Nc1ccc(F)c(Oc2ccc3ncn(C4CCC5(CCN(C(=O)CN6CCC(c7ccc(NC8CCC(=O)NC8=O)cc7F)CC6)CC5)C4)c(=O)c3c2Br)c1C#N (centres unmarked) [Example 69, 5-bromo-6-[2-cyano-3-[[ethyl(methyl)sulfamoyl]amino]-6-fluorophenoxy]-3-[8-[2-[4-[4-[(2,6-dioxopiperidin-3-yl)amino]-2-fluorophenyl]piperidin-1-yl]acetyl]-8-azaspiro[4.5]decan-3-yl]-4-oxoquinazoline]",
46.9,11.6,"CCN(C)S(=O)(=O)Nc1ccc(F)c(Oc2ccc3ncn(CC4CC5(CCN(C(=O)CN6CCC(c7ccc(NC8CCC(=O)NC8=O)cc7F)CC6)CC5)C4)c(=O)c3c2)c1C#N (centres unmarked) [Example 31, 6-[2-cyano-3-[[ethyl(methyl)sulfamoyl]amino]-6-fluorophenoxy]-3-[[7-[2-[4-[4-[(2,6-dioxopiperidin-3-yl)amino]-2-fluorophenyl]piperidin-1-yl]acetyl]-7-azaspiro[3.5]nonan-2-yl]methyl]-4-oxoquinazoline]",
10.7,11.5,"CCN(C)S(=O)(=O)Nc1ccc(F)c(Oc2ccc3ncn(C4CC5(CCN(C(=O)CN6CCC(c7ccc8c(C9CCC(=O)NC9=O)nn(C)c8c7)CC6)CC5)C4)c(=O)c3c2)c1C#N (centres unmarked) [Example 149, 6-[2-cyano-3-[[ethyl(methyl)sulfamoyl]amino]-6-fluorophenoxy]-3-[7-[2-[4-[3-(2,6-dioxopiperidin-3-yl)-1-methylindazol-6-yl]piperidin-1-yl]acetyl]-7-azaspiro[3.5]nonan-2-yl]-4-oxoquinazoline]",
11.2,11.5,"CCN(C)S(=O)(=O)Nc1ccc(F)c(Oc2ccc3ncn(C4CC5(CCN(C(=O)CN6CCC(c7ccc(NC8CCC(=O)NC8=O)cc7F)CC6)CC5)C4)c(=O)c3c2)c1C#N (centres unmarked) [Example 22, 6-[2-cyano-3-[[ethyl(methyl)sulfamoyl]amino]-6-fluorophenoxy]-3-[7-[2-[4-[4-[(2,6-dioxopiperidin-3-yl)amino]-2-fluorophenyl]piperidin-1-yl]acetyl]-7-azaspiro[3.5]nonan-2-yl]-4-oxoquinazoline]",
25.4,12.2,"CCN(C)S(=O)(=O)Nc1ccc(F)c(Oc2ccc3ncn(C4COC5(CCN(C(=O)CN6CCC(c7ccc(NC8CCC(=O)NC8=O)cc7F)CC6)CC5)C4)c(=O)c3c2N)c1C#N (centres unmarked) [Example 81, 3-[5-amino-6-[2-cyano-3-[[ethyl(methyl)sulfamoyl]amino]-6-fluorophenoxy]-4-oxoquinazolin-3-yl]-8-[2-[4-[4-[(2,6-dioxopiperidin-3-yl)amino]-2-fluorophenyl]piperidin-1-yl]acetyl]-1-oxa-8-azaspiro[4.5]decane]",
148,10.8,"N#Cc1c(NS(=O)(=O)N2CC[C@@H](F)C2)ccc(F)c1Oc1ccc2ncn([C@H]3COC4(CCN(C(=O)CN5CCC(c6ccc(NC7CCC(=O)NC7=O)cc6F)CC5)CC4)C3)c(=O)c2c1 (stereo partly drawn) [Example 49, (3R)—N-[2-cyano-3-[3-[(3R)-8-[2-[4-[4-[(2,6-dioxopiperidin-3-yl)amino]-2-fluorophenyl]piperidin-1-yl]acetyl]-1-oxa-8-azaspiro[4.5]decan-3-yl]-4-oxoquinazolin-6-yl]oxy-4-fluorophenyl]-3-fluoropyrrolidine-1-sulfonamide]",

# The next lines start with the compound.
Compound,"DC50 (A375.10 cells, 24 h) [nM]",Emax [1] [%],Emax [%]
"CCN(C)S(=O)(=O)Nc1ccc(F)c(Oc2ccc3ncn(-c4cnc(N5CCN(C(=O)CN6CCC(c7c(F)cc(NC8CCC(=O)NC8=O)cc7OC)CC6)CC5)nc4)c(=O)c3c2)c1C#N (centres unmarked) [Example 89, 6-[2-cyano-3-[[ethyl(methyl)sulfamoyl]amino]-6-fluorophenoxy]-3-[2-[4-[2-[4-[4-[(2,6-dioxopiperidin-3-yl)amino]-2-fluoro-6-methoxyphenyl]piperidin-1-yl]acetyl]piperazin-1-yl]pyrimidin-5-yl]-4-oxoquinazoline]",33,11.5,
"CCN(C)S(=O)(=O)Nc1ccc(F)c(Nc2ccc3ncn([C@H]4COC5(CCN(C(=O)CC6CCN(c7cc8c(cc7F)c(N7CCC(=O)NC7=O)nn8C)CC6)CC5)C4)c(=O)c3c2F)c1C#N (single isomer, unassigned) [Example 202]",5.17,23.9,
"CC(C)S(=O)(=O)Nc1ccc(F)c(Oc2ccc3ncn(-c4cnc(N5CCN(C(=O)CN6CCC(c7ccc(N[C@@H]8CCC(=O)NC8=O)cc7F)CC6)CC5)nc4)c(=O)c3c2)c1C#N [Example 118, N-[2-cyano-3-[3-[2-[4-[2-[4-[4-[[(3R)-2,6-dioxopiperidin-3-yl]amino]-2-fluorophenyl]piperidin-1-yl]acetyl]piperazin-1-yl]pyrimidin-5-yl]-4-oxoquinazolin-6-yl]oxy-4-fluorophenyl]propane-2-sulfonamide]",18.7,9.98,
"CCN(C)S(=O)(=O)Nc1ccc(F)c(Oc2ccc3ncn([C@H]4COC5(CCN(C(=O)CN6CC(c7ccc8c(C9CCC(=O)NC9=O)nn(C)c8c7)C6)CC5)C4)c(=O)c3c2)c1C#N (stereo partly drawn) [Example 171, (3R)-3-[6-[2-cyano-3-[[ethyl(methyl)sulfamoyl]amino]-6-fluorophenoxy]-4-oxoquinazolin-3-yl]-8-[2-[3-[3-(2,6-dioxopiperidin-3-yl)-1-methylindazol-6-yl]azetidin-1-yl]acetyl]-1-oxa-8-azaspiro[4.5]decane]",30.7,7.11,
"CCN(C)S(=O)(=O)Nc1ccc(F)c(Oc2ccc3ncn([C@H]4COC5(CCN(C(=O)CC6(O)CCN(c7ccc8c(N9CCC(=O)NC9=O)nn(C)c8c7F)CC6)CC5)C4)c(=O)c3c2)c1C#N [Example 173, (3R)-3-[6-[2-cyano-3-[[ethyl(methyl)sulfamoyl]amino]-6-fluorophenoxy]-4-oxoquinazolin-3-yl]-8-[2-[1-[3-(2,4-dioxo-1,3-diazinan-1-yl)-7-fluoro-1-methylindazol-6-yl]-4-hydroxypiperidin-4-yl]acetyl]-1-oxa-8-azaspiro[4.5]decane]",192,46,
"CN(CC(F)F)S(=O)(=O)Nc1ccc(F)c(Oc2ccc3ncn(-c4cnc(N5CCN(C(=O)CN6CCC(c7ccc(N[C@H]8CCC(=O)NC8=O)cc7F)CC6)CC5)nc4)c(=O)c3c2)c1C#N [Example 122, 6-[2-cyano-3-[[2,2-difluoroethyl(methyl)sulfamoyl]amino]-6-fluorophenoxy]-3-[2-[4-[2-[4-[4-[[(3S)-2,6-dioxopiperidin-3-yl]amino]-2-fluorophenyl]piperidin-1-yl]acetyl]piperazin-1-yl]pyrimidin-5-yl]-4-oxoquinazoline]",27.1,8.26,
"CCN(C)S(=O)(=O)Nc1ccc(F)c(Oc2ccc3ncc(OC[C@@H]4[C@H]5CN(C(=O)CN6CCC(c7ccc(NC8CCC(=O)NC8=O)cc7F)CC6)C[C@@H]45)nc3c2)c1C#N (stereo partly drawn) [Example 217, 7-[2-cyano-3-[[ethyl(methyl)sulfamoyl]amino]-6-fluorophenoxy]-2-[[(1R,5S)-3-[2-[4-[4-[(2,6-dioxopiperidin-3-yl)amino]-2-fluorophenyl]piperidin-1-yl]acetyl]-3-azabicyclo[3.1.0]hexan-6-yl]methoxy]quinoxaline]",18,8.83,
"CCN(C)S(=O)(=O)Nc1ccc(F)c(Oc2ccc3ncc(OCC4CCN(C(=O)CN5CCC(c6ccc(NC7CCC(=O)NC7=O)cc6F)CC5)CC4)nc3c2)c1C#N (centres unmarked) [Example 216, 7-[2-cyano-3-[[ethyl(methyl)sulfamoyl]amino]-6-fluorophenoxy]-2-[[1-[2-[4-[4-[(2,6-dioxopiperidin-3-yl)amino]-2-fluorophenyl]piperidin-1-yl]acetyl]piperidin-4-yl]methoxy]quinoxaline]",25.2,10.1,
"CCN(C)S(=O)(=O)Nc1ccc(F)c(Oc2ccc3ncn([C@H]4CCC5(CCN(C(=O)CN6CCC(c7cc(F)c(NC8CCC(=O)NC8=O)cc7F)CC6)CC5)C4)c(=O)c3c2)c1C#N (stereo partly drawn) [Example 67, 6-[2-cyano-3-[[ethyl(methyl)sulfamoyl]amino]-6-fluorophenoxy]-3-[(3S)-8-[2-[4-[4-[(2,6-dioxopiperidin-3-yl)amino]-2,5-difluorophenyl]piperidin-1-yl]acetyl]-8-azaspiro[4.5]decan-3-yl]-4-oxoquinazoline]",5.31,,8.05
"CCN(C)S(=O)(=O)Nc1ccc(F)c(Oc2ccc3ncn([C@H]4CCC5(CCN(C(=O)CC6(O)CCN(c7cc8c(cc7F)c(N7CCC(=O)NC7=O)nn8C)CC6)CC5)C4)c(=O)c3c2)c1C#N [Example 159, 6-[2-cyano-3-[[ethyl(methyl)sulfamoyl]amino]-6-fluorophenoxy]-3-[(3S)-8-[2-[1-[3-(2,4-dioxo-1,3-diazinan-1-yl)-5-fluoro-1-methylindazol-6-yl]-4-hydroxypiperidin-4-yl]acetyl]-8-azaspiro [4.5]decan-3-yl]-4-oxoquinazoline]",6.98,18.8,
"CCN(C)S(=O)(=O)Nc1ccc(F)c(Oc2ccc3ncn([C@H]4CCC5(CCN(C(=O)CN6CCC(c7ccc8c(C9CCC(=O)NC9=O)nn(C)c8c7)C(F)(F)C6)CC5)C4)c(=O)c3c2)c1C#N (stereo partly drawn) [Example 160, 6-[2-cyano-3-[[ethyl(methyl)sulfamoyl]amino]-6-fluorophenoxy]-3-[(3S)-8-[2-[4-[3-(2,6-dioxopiperidin-3-yl)-1-methylindazol-6-yl]-3,3-difluoropiperidin-1-yl]acetyl]-8-azaspiro[4.5]decan-3-yl]-4-oxoquinazoline]",22.2,23.9,
"CCN(C)S(=O)(=O)Nc1ccc(F)c(Oc2ccc3ncn(-c4cnc(N5CCN(C(=O)CN6CCC(c7ccc(N[C@@H]8CCC(=O)NC8=O)cc7F)CC6)CC5)nc4)c(=O)c3c2N)c1C#N [Example 101, 5-amino-6-[2-cyano-3-[[ethyl(methyl)sulfamoyl]amino]-6-fluorophenoxy]-3-[2-[4-[2-[4-[4-[[(3R)-2,6-dioxopiperidin-3-yl]amino]-2-fluorophenyl]piperidin-1-yl]acetyl]piperazin-1-yl]pyrimidin-5-yl]-4-oxoquinazoline]",27.7,11.6,
"CCN(C)S(=O)(=O)Nc1ccc(F)c(Nc2ccc3ncn([C@H]4COC5(CCN(C(=O)CC6(O)CCN(c7cc8c(cc7F)c(N7CCC(=O)NC7=O)nn8C)CC6)CC5)C4)c(=O)c3c2)c1C#N (single isomer, unassigned) [Example 178]",6.13,19.1,
